Measurements taken from a compilation of properties of binary mixtures (doi:10.1021/acs.jpcc.9b07923).

Test: xn = mol fraction of the nth substance listed
Details: 100 kPa

Fc1ccccn1 + Fc1cccc[nH+]1.O=S(=O)([O-])C(F)(F)F
Details	electrical conductivity [S/m]
242.2 K, x1 = 0.95	0.091
242.4 K, x1 = 0.5	0.0018
242.6 K, x1 = 0.86	0.075
244.9 K, x2 = 0.01	0.083
247.7 K, x1 = 0.9	0.109
251.9 K, x1 = 0.95	0.118
252.3 K, x1 = 0.86	0.113
252.8 K, x1 = 0.5	0.0037
254.7 K, x2 = 0.01	0.102
257.7 K, x1 = 0.9	0.168
262 K, x1 = 0.95	0.353
262.5 K, x2 = 0.01	0.12
262.6 K, x1 = 0.9	0.201
262.7 K, x1 = 0.86	0.161
267.6 K, x1 = 0.86	0.187
267.6 K, x1 = 0.9	0.24
271.8 K, x1 = 0.95	0.445
272.4 K, x1 = 0.9	0.279
272.5 K, x1 = 0.86	0.229
272.6 K, x2 = 0.01	0.137
272.7 K, x1 = 0.5	0.0132
277.5 K, x1 = 0.9	0.532
277.9 K, x1 = 0.86	0.295
282.6 K, x2 = 0.01	0.156
282.9 K, x1 = 0.86	0.408
287.4 K, x1 = 0.5	0.0369
287.7 K, x1 = 0.9	0.608
287.7 K, x2 = 0.01	0.161
292.1 K, x1 = 0.95	0.596
292.2 K, x1 = 0.5	0.0485
292.6 K, x1 = 0.86	0.658
296.9 K, x1 = 0.95	0.644
297.4 K, x1 = 0.5	0.0902
297.6 K, x1 = 0.86	0.711
297.6 K, x2 = 0.01	0.189
302.3 K, x1 = 0.5	0.185
302.5 K, x2 = 0.01	0.204
303 K, x1 = 0.86	0.769
303.3 K, x1 = 0.95	0.664
